Measurements published in patent US20080234262A1 (Wyeth, priority 2007, published 2008).
pIC50: −log10 of the molar value.

How the values were obtained:
PI3K = PI3K (Homo sapiens, UniProt P42336); assay: Fluorescence polarization assay for PI3K; format: biochemical; conditions: PI3Kα; read-out: PI3Kα IC50;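 also: PI3K kinase reaction on PIP2 with ATP, 30-60 min, product sensed by GST-GRP with red probe in fluorescence polarization (mP), controls without enzyme and at zero time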
prostate line LNCap = assay: In vitro cell culture growth assay (MTS), LNCap; format: cell-based, human; conditions: LNCap cells, three days after drug treatment
breast line MDA468 = assay: In vitro cell culture growth assay (MTS), MDA468; format: cell-based, human; conditions: MDA468 cells, three days after drug treatment
Procedure, shortened: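 MDA468 or LNCap cells received inhibitors one day after plating and were grown for three days. Viable cell density read by MTS conversion, absorbance 490 nm, expressed as percent of control growth versus vehicle-treated cells on the same plate.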

PI3K, sequence (P42336 whole entry): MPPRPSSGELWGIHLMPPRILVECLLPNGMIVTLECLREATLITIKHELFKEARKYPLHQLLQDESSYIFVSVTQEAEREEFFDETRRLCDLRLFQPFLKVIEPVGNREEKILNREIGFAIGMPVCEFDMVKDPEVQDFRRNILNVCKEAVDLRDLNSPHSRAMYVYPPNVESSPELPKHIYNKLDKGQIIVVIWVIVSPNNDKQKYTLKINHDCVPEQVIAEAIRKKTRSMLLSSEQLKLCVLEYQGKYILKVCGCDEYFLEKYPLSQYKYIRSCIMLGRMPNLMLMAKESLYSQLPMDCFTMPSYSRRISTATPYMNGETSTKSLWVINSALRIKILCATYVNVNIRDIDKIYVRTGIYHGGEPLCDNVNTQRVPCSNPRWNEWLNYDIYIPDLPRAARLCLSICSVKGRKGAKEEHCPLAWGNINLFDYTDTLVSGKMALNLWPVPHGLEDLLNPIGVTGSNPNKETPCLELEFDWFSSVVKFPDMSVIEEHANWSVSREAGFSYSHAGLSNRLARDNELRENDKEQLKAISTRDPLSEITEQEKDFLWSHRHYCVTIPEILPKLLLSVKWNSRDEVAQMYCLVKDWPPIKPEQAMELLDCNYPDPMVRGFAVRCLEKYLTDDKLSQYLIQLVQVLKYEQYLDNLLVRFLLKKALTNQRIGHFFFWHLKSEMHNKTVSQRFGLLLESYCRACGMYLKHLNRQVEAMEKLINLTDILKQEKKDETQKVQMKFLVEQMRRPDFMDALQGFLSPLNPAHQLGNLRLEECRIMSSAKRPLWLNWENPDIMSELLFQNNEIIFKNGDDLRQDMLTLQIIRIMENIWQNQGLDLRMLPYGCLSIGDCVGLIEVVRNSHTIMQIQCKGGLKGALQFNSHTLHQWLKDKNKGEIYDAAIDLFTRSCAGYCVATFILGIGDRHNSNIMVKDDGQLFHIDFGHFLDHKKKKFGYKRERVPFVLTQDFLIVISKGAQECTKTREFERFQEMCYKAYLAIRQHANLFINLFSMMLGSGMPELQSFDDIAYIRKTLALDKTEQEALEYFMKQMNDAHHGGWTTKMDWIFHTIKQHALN
PI3K, sequence (P27986 whole entry partner): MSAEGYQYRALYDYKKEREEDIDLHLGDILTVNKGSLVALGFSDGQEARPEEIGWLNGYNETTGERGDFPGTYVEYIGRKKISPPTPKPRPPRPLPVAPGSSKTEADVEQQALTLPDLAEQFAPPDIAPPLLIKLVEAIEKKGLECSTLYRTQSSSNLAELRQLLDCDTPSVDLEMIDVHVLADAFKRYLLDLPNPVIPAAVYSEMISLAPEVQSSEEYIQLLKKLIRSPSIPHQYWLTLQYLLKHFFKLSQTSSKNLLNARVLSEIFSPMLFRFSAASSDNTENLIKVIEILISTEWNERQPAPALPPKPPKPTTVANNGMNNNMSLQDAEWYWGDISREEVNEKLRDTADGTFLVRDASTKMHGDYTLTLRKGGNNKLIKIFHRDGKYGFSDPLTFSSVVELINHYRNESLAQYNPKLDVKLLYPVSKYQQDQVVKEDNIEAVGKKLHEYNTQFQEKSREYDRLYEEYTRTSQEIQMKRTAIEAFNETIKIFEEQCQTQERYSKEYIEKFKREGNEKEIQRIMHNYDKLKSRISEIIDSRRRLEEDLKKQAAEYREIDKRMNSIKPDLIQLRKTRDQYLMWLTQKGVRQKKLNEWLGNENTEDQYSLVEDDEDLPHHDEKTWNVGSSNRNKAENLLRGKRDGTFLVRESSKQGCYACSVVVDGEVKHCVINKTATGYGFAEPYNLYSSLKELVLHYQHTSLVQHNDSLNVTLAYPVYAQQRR

| SMILES | pIC50 (PI3K) | pIC50 (prostate line LNCap) | pIC50 (breast line MDA468) | pIC50 (prostate line LNCap; Homo sapiens, LNCaP, 72 h) | pIC50 (breast line MDA468; Homo sapiens, 72 h) |
| --- | --- | --- | --- | --- | --- |
| CNC(=O)Nc1ccc(-c2nc(N3CCOCC3)c3cnn(C4CCN(Cc5ccc(F)nc5)CC4)c3n2)cc1 [Compound 632, 1-[4-(1-{1-[(6-fluoropyridin-3-yl)methyl]piperidin-4-yl}-4-morpholin-4-yl-1H-pyrazolo[3,4-d]pyrimidin-6-yl)phenyl]-3-methylurea] | 6.97 | 7.46 | 6.92 |  |  |
| CNC(=O)Nc1ccc(-c2nc(N3CCOCC3)c3cnn(C4CCN(C(=O)c5ccc(Cl)cc5)CC4)c3n2)cc1 [Compound 608, 1-(4-{1-[1-(4-chlorobenzoyl)piperidin-4-yl]-4-morpholin-4-yl-1H-pyrazolo[3,4-d]pyrimidin-6-yl}phenyl)-3-methylurea] | 7.38 |  |  | 7.28 | 6.40 |
| c1ccc(CN2CCC(n3ncc4c(N5CCOCC5)nc(-c5cnc6ccccc6c5)nc43)CC2)cc1 [Compound 230, 3-[1-(1-benzylpiperidin-4-yl)-4-morpholin-4-yl-1H-pyrazolo[3,4-d]pyrimidin-6-yl]quinoline] | 5.22 |  |  | 4.22 | 4.66 |
| CNC(=O)Nc1ccc(-c2nc(N3CCOCC3)c3cnn(C4CCN(C(=O)c5ccccn5)CC4)c3n2)cc1 [Compound 662, 1-methyl-3-(4-{4-morpholin-4-yl-1-[1-(pyridin-2-ylcarbonyl)piperidin-4-yl]-1H-pyrazolo[3,4-d]pyrimidin-6-yl}phenyl)urea] | 6.91 | 6.92 | 6.66 |  |  |
| COC(=O)N1CCC(n2ncc3c(N4CCOCC4)nc(-c4ccc(NC(=O)OCCN5CCOCC5)cc4)nc32)CC1 [Compound 906, methyl 4-[4-morpholin-4-yl-6-(4-{[(2-morpholin-4-ylethoxy)carbonyl]amino}phenyl)-1H-pyrazolo[3,4-d]pyrimidin-1-yl]piperidine-1-carboxylate] | 5.69 |  |  | 5.28 | 4.64 |
| O=C(NCCF)Nc1ccc(-c2nc(N3CCOCC3)c3cnn(C4CCN(CC(F)(F)F)CC4)c3n2)cc1 [Compound 783, 1-(2-fluoroethyl)-3-(4-{4-morpholin-4-yl-1-[1-(2,2,2-trifluoroethyl)piperidin-4-yl]-1H-pyrazolo[3,4-d]pyrimidin-6-yl}phenyl)urea] | 5.95 |  |  | 7.22 | 6.41 |
| NC(=O)Nc1cccc(-c2nc(N3CCOCC3)c3cnn(C4CCN(Cc5ccccc5)CC4)c3n2)c1 [Compound 483, N-{3-[1-(1-benzylpiperidin-4-yl)-4-morpholin-4-yl-1H-pyrazolo[3,4-d]pyrimidin-6-yl]phenyl}urea] | 5.66 |  |  | 5.17 | 4.92 |
| CNC(=O)Nc1ccc(-c2nc(N3CCOCC3)c3cnn(C4CCN(Cc5ccc(Cl)cc5)CC4)c3n2)cc1 [Example 394, 1-(4-{1-[1-(4-chlorobenzyl)piperidin-4-yl]-4-morpholin-4-yl-1H-pyrazolo[3,4-d]pyrimidin-6-yl}phenyl)-3-methylurea] | 7.74 |  |  | 7.22 | 6.52 |
| COCCCNC(=O)Nc1ccc(-c2nc(N3CCOCC3)c3cnn(C4CCN(Cc5ccccc5)CC4)c3n2)cc1 [Compound 270, 1-{4-[1-(1-benzylpiperidin-4-yl)-4-morpholin-4-yl-1H-pyrazolo[3,4-d]pyrimidin-6-yl]phenyl}-3-(3-methoxypropyl)urea] | 6.12 |  |  | 6.22 | 5.49 |
| COC(=O)N1CCC(n2ncc3c(N4CCOCC4)nc(-c4ccc(NC(=O)OCCN(C)C)cc4)nc32)CC1 [Compound 904, methyl 4-{6-[4-({[2-(dimethylamino)ethoxy]carbonyl}amino)phenyl]-4-morpholin-4-yl-1H-pyrazolo[3,4-d]pyrimidin-1-yl}piperidine-1-carboxylate] | 6.19 |  |  | 5.64 | 5.11 |
| CNC(=O)Nc1ccc(-c2nc(N3CCOCC3)c3cnn(C4CCN(C(=O)c5cccc(OC)c5)CC4)c3n2)cc1 [Compound 610, 1-(4-{1-[1-(3-methoxybenzoyl)piperidin-4-yl]-4-morpholin-4-yl-1H-pyrazolo[3,4-d]pyrimidin-6-yl}phenyl)-3-methylurea] | 7.12 |  |  | 7.46 | 6.47 |
| CC(c1ccccc1)N1CCC(n2ncc3c(N4CCOCC4)nc(-c4ccc5[nH]ccc5c4)nc32)CC1 (stereo not drawn) [Compound 490, 6-(1H-indol-5-yl)-4-morpholin-4-yl-1-[1-(1-phenylethyl)piperidin-4-yl]-1H-pyrazolo[3,4-d]pyrimidine] | 5.57 |  |  | 5.42 | 5.46 |
| Clc1ncccc1CN1CCC(n2ncc3c(N4CCOCC4)nc(-c4ccc5[nH]ccc5c4)nc32)CC1 [Compound 175] | 6.34 |  |  | 5.96 | 5.70 |
| c1cc2cc(-c3nc(N4CCOCC4)c4cn[nH]c4n3)ccc2[nH]1 [Compound 248, 6-(1H-indol-5-yl)-4-morpholin-4-yl-1H-pyrazolo[3,4-d]pyrimidine] | 6.03 |  |  | 5.46 | 5.05 |
| CNC(=O)Nc1ccc(-c2nc(N3CCOCC3)c3cnn(C4CCN(Cc5ccc(F)cc5)CC4)c3n2)cc1 [Compound 427, 1-(4-{1-[1-(4-fluorobenzyl)piperidin-4-yl]-4-morpholin-4-yl-1H-pyrazolo[3,4-d]pyrimidin-6-yl}phenyl)-3-methylurea] | 7.47 |  |  | 7.57 | 6.70 |
| CC(=O)Nc1ccc(-c2nc(N3CCOCC3)c3cnn(C4CCN(C(=O)c5cccnc5)CC4)c3n2)cc1 [Example 159, N-(4-{4-morpholin-4-yl-1-[1-(pyridin-3-ylcarbonyl)piperidin-4-yl]-1H-pyrazolo[3,4-d]pyrimidin-6-yl}phenyl)acetamide] | 6.06 |  |  | 6.20 | 5.60 |
| CNC(=O)Nc1ccc(-c2nc(N3CCOCC3)c3cnn(C4CCN(C(=S)NC)CC4)c3n2)cc1 [Compound 760, N-methyl-4-(6-{4-[(methylcarbamoyl)amino]phenyl}-4-morpholin-4-yl-1H-pyrazolo[3,4-d]pyrimidin-1-yl)piperidine-1-carbothioamide] | 7.38 |  |  | 6.77 | 7.30 |
| COC(=O)N1CCC(n2ncc3c(N4CCOCC4)nc(-c4ccc5[nH]ccc5c4)nc32)CC1 [Compound 494, methyl 4-[6-(1H-indol-5-yl)-4-morpholin-4-yl-1H-pyrazolo[3,4-d]pyrimidin-1-yl]piperidine-1-carboxylate] | 5.48 |  |  | 6.12 | 5.69 |
| OCCCN1CCC(n2ncc3c(N4CCOCC4)nc(-c4ccc5[nH]ccc5c4)nc32)CC1 [Compound 247, 3-{4-[6-(1H-indol-5-yl)-4-morpholin-4-yl-1H-pyrazolo[3,4-d]pyrimidin-1-yl]piperidin-1-yl}propan-1-ol] | 5.14 |  |  | 5.60 | 5.52 |
| O=C(NCCCc1ccccc1)Nc1ccc(-c2nc(N3CCOCC3)c3cnn(C4CCN(Cc5ccccc5)CC4)c3n2)cc1 [Compound 260, 1-{4-[1-(1-benzylpiperidin-4-yl)-4-morpholin-4-yl-1H-pyrazolo[3,4-d]pyrimidin-6-yl]phenyl}-3-(3-phenylpropyl)urea] | 5.15 |  |  | 5.35 | 4.22 |
| CNC(=O)Nc1ccc(-c2nc(N3CCOCC3)c3cnn(C4CCN(C(=O)c5ccccc5C)CC4)c3n2)cc1 [Example 356, 1-methyl-3-(4-{1-[1-(2-methylbenzoyl)piperidin-4-yl]-4-morpholin-4-yl-1H-pyrazolo[3,4-d]pyrimidin-6-yl}phenyl)urea] | 7.03 |  |  | 7.57 | 7.00 |
| CNC(=O)Nc1ccc(-c2nc(N3CCOCC3)c3cnn(C4CCN(CC(=O)O)CC4)c3n2)cc1 [Compound 798, [4-(6-{4-[(methylcarbamoyl)amino]phenyl}-4-morpholin-4-yl-1H-pyrazolo[3,4-d]pyrimidin-1-yl)piperidin-1-yl]acetic acid] | 6.36 |  |  | < 4.22 | < 4.22 |
| CCCNC(=O)Nc1ccc(-c2nc(N3CCOCC3)c3cnn(C4CCN(C(=O)OCCC)CC4)c3n2)cc1 [Compound 853, propyl 4-(4-morpholin-4-yl-6-{4-[(propylcarbamoyl)amino]phenyl}-1H-pyrazolo[3,4-d]pyrimidin-1-yl)piperidine-1-carboxylate] | 6.08 |  |  | 6.89 | 6.00 |
| Nc1ccc(-c2nc(N3CCOCC3)c3cnn(C4CCN(C(=O)c5cccnc5)CC4)c3n2)cn1 [Example 214, 5-{4-morpholin-4-yl-1-[1-(pyridin-3-ylcarbonyl)piperidin-4-yl]-1H-pyrazolo[3,4-d]pyrimidin-6-yl}pyridin-2-amine] | 6.96 |  |  | 6.24 | 5.82 |
| CCSC(=O)N1CCC(n2ncc3c(N4CCOCC4)nc(-c4ccc(NC(=O)NC)cc4)nc32)CC1 [Compound 762, S-ethyl 4-(6-{4-[(methylcarbamoyl)amino]phenyl}-4-morpholin-4-yl-1H-pyrazolo[3,4-d]pyrimidin-1-yl)piperidine-1-carbothioate] | 7.06 |  |  | 7.30 | 6.77 |
| CCOC(=O)Nc1ccc(-c2nc(N3CCOCC3)c3cnn(C4CCN(C(=O)OC)CC4)c3n2)cc1 [Compound 900, methyl 4-(6-{4-[(ethoxycarbonyl)amino]phenyl}-4-morpholin-4-yl-1H-pyrazolo[3,4-d]pyrimidin-1-yl)piperidine-1-carboxylate] | 5.17 |  |  | 6.12 | < 4.22 |
| CN(C)CC(=O)Nc1ccc(-c2nc(N3CCOCC3)c3cnn(C4CCCCO4)c3n2)cc1 (stereo not drawn) [Compound 521, N2,N2-dimethyl-N-{4-[4-morpholin-4-yl-1-(tetrahydro-2H-pyran-2-yl)-1H-pyrazolo[3,4-d]pyrimidin-6-yl]phenyl}glycinamide] | 5.05 |  |  | 4.92 | 4.40 |
